Patent US20020161194A1, “Cannine androgen receptor” (priority 2000, published 2002)

Test system: canine androgen receptor
Conditions: DHT 10^−7 M, 24 hr, control A293S cells lacking the canine AR
Description: Control plates were transfected with all plasmids except canine AR. […] Luciferase activity was normalized for transfection efficiency using β-galactosidase activity.
Control plates were transfected with all the same plasmids except canine AR. […] Cells were harvested 24 hr after compound addition and analyzed for luciferase activity (Luciferase Assay System, Promega, Madison, Wis.) and β-galactosidase activity (Galacto-Star, Tropix, Inc., Bedford, Mass.). Data is expressed as fold induction of luciferase activity as compared to vehicle, following normalization for transfection efficiency using β-galactosidase activity.

C[C@]12CCC(=O)C[C@@H]1CC[C@@H]1[C@@H]2CC[C@]2(C)[C@@H](O)CC[C@@H]12 [DHT, 5α-androstan-17β-ol-3-one]
induction of luciferase activity compared to vehicle: no induction
